# Test results from patent US8748445B2, “Methods for treating glioma” (The UAB Research Foundation, priority 2004, dated 2014).
# “Also recorded” adds a separate entry of the source.
# Columns and labels:
# system Xc = target: T1, system Xc (Homo sapiens, UniProt Q9UPY5); experiment: 35S-labeled cystine uptake in glioma lines and primary glioma culture; assay type: cell-based; conditions: 5 mM L glutamate; data not shown
# T1 construct: reduced ^35S-labeled cystine uptake by 60-80% in glioma lines (d-54MG, U-87MG and U-251MG) and a primary glioma culture (GBM62); endogenous in cells; host or cells: human glioma cell lines D-54MG, U-87MG, U-251MG and primary glioma culture GBM62
# T1 sequence (Q9UPY5 1-501): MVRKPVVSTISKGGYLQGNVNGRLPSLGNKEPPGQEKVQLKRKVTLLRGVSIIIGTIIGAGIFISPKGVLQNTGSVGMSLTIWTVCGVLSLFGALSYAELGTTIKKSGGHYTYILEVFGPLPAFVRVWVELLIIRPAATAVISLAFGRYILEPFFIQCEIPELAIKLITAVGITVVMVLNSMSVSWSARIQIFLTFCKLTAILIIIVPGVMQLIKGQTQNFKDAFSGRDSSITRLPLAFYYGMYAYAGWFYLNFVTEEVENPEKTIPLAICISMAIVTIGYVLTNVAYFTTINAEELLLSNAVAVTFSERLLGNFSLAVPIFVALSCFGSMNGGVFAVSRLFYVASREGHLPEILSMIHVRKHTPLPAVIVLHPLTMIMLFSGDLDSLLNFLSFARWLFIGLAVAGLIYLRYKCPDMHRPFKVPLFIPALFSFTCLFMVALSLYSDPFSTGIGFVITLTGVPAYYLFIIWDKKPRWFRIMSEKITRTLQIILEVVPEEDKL
# T1 sequence (P08195 1-529 partner): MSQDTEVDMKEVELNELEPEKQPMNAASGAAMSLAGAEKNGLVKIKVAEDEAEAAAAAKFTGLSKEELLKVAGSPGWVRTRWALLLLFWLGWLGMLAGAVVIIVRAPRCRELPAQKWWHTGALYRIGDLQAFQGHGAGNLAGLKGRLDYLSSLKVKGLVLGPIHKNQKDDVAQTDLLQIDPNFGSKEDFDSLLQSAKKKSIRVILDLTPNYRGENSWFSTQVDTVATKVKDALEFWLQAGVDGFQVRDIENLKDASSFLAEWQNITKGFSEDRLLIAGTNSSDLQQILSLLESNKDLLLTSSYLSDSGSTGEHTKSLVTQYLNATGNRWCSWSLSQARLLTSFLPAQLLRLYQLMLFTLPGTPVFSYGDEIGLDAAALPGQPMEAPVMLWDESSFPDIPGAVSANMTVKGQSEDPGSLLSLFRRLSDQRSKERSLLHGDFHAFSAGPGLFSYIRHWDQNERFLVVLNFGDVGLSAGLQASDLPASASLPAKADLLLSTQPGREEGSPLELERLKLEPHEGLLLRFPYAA
# Text: System Xc is a glutamate-cystine exchanger and can therefore be inhibited if the outward directed gradient for glutamate is eliminated by exposure to high concentrations of extracellular glutamate. The principal hypothesis in this study is that system Xc serves as a pipeline for cellular cystine uptake, with glutamate release being an obligatory by-product. Cystine uptake is the rate-limiting step for the synthesis of GSH, which is the main intracellular antioxidant that protects cells from oxidative stress and resulting reactive oxygen species (ROS) (Jefferies et al., 2003).
# glioma cells [1] = experiment: total intracellular glutathione content in glioma cells; assay type: cell-based, human
# Protocol: To determine if limiting cystine uptake via system Xc reduces the total intracellular glutathione content (GSH and glutathione disulfide), intracellular glutathione concentrations were determined in the presence and absence of sulfasalazine.
# [2] = test system: glioma cell lines (D-54MG, U-87MG, U-251MG and STTG1) and a primary glioma culture (GBM62); experiment: growth curves of glioma cells over 5 days; assay type: cell-based, human
# Protocol: To examine whether the depletion of glutathione via inhibition of cystine uptake by system Xc affects the growth of glioma cells, growth curves for 4 glioma cell lines (D-54MG, U-87MG, U-251MG and STTG1) and a primary glioma culture (GBM62) were established.
# In the presence of 0.25 mM (S)-4-CPG, growth of D-54MG cells indeed recovered by the addition of fourfold excess of cystine (FIG. 3E), but not with glutamate (FIG. 3D), the second substrate for system Xc.
# [3] = test system: primary astrocyte cultures; experiment: growth of primary astrocyte cultures; assay type: cell-based; conditions: (S)-4-CPG 0.25 mM and 0.5 mM (FIG. 3C); sulfasalazine data not shown
# [4] = test system: cortical neuronal cultures; experiment: survival of cortical neuronal cultures; assay type: cell-based; conditions: (S)-4-CPG 0.25 mM and 0.5 mM (FIG. 3C); sulfasalazine data not shown
# D-54MG glioma cells [5] = experiment: BrdU incorporation, ELISA-based assay; assay type: cell-based, human
# Protocol: (§1) BrdU incorporation was measured using an ELISA-based assay. D-54MG cells were grown in the presence or absence of inhibitors for 24 hours and pulsed for 2 hours with BrdU. The cells were cultured for an additional 48 hours and the amount of incorporated BrdU was measured using alkaline phosphatase conjugated to anti-BrdU antibodies. […] The inhibition of DNA synthesis was also seen in immunocytochemical studies.
# D-54MG glioma cells [6] = experiment: BrdU incorporation, immunocytochemical studies; assay type: cell-based, human; conditions: DAPI co-staining (FIG. 4B)
# Protocol: as §1
# glioma cells [7] = experiment: cell cycle: total DNA content by flow cytometry (propidium iodide); assay type: cell-based, human; conditions: 0.5 mM (FIG. 4D)
# Protocol: To test whether inhibition of cystine uptake affects a specific stage of the cell cycle, changes in total DNA content were measured using flow cytometry following treatment with 0.5 mM (S)-4-CPG and 0.5 mM sulfasalazine. Cells were fixed with para-formaldehyde and stained with the nuclear marker propidium iodide after incubation with drugs.
# D-54MG glioma cells [8] = experiment: chromosomal DNA fragmentation (apoptosis) by flow cytometry; assay type: cell-based, human; conditions: 1 mM for 3 days; D-54MG (FIG. 5B)
# Protocol: (§2) Because an accumulation of ROS can lead to apoptotic cell death, the ability of system Xc inhibitors to induce apoptosis in glioma cells was examined. […] Often apoptosis is dependent on caspase activities, so it was determined whether the system Xc inhibitors induce activated caspase-3, which is the convergent enzyme in the caspase-dependent signaling cascade. […] With 1 mM sulfasalazine, 90% of cells died over the 5 d incubation (FIG. 5E).
# caspase-3 = experiment: activated caspase-3 by Western blot analysis; assay type: cell-based, human; conditions: 0.5 mM; D-54MG cells (FIG. 5C)
# Protocol: as §2
# glioma cells [9] = experiment: cell death by flow cytometry using the Live/Dead assay kit; assay type: cell-based, human
# Protocol: as §2
# glioma cells [10] = experiment: rescue from (S)-4-CPG-induced cell death by caspase inhibitor; assay type: cell-based, human; conditions: Boc-D-FMK 100 μM; (S)-4-CPG 0.25 mM (FIG. 5D)
# Protocol: Because an accumulation of ROS can lead to apoptotic cell death, the ability of system Xc inhibitors to induce apoptosis in glioma cells was examined. Exposure of D-54MG glioma cells to 1 mM (S)-4-CPG for 3 days caused 17% of the cell population to be positive for chromosomal DNA fragmentation, a classic manifestation of apoptosis (FIG. 5B). Often apoptosis is dependent on caspase activities, so it was determined whether the system Xc inhibitors induce activated caspase-3, which is the convergent enzyme in the caspase-dependent signaling cascade. […] In the continued presence of 0.5 mM (S)-4-CPG over a 5 d period, 60% of glioma cells died (FIG. 5E). With 1 mM sulfasalazine, 90% of cells died over the 5 d incubation (FIG. 5E).
compound,measurement,setting,value
N[C@@H](CCC(=O)O)C(=O)O [glutamate],competitive inhibition of cystine uptake compared with both drugs,system Xc,comparable
same,restoration of intracellular glutathione levels,glioma cells [1]; L-glutamate with system Xc inhibitor (FIG. 3D),failed to restore intracellular glutathione levels
same,reversal of growth inhibition by (S)-4-CPG,[2]; 1 mM glutamate with 0.25 mM (S)-4-CPG (FIG. 3D),failed to overcome the inhibitory effect
vitamin E,growth of D-54MG glioma cells with free radical scavenger,[2]; in the presence of (S)-4-CPG (FIG. 5A),partially restored
CCOC(=O)CNC(=O)[C@H](CS)NC(=O)CC[C@H](N)C(=O)O [glutathione ethyl ester],intracellular glutathione levels on coincubation,glioma cells [1]; sulfasalazine (0.4 mM) treated D-54MG glioma cells (FIG. 6A),replenished intracellular glutathione levels
same,D-54MG glioma cell growth on coincubation,"[2]; after treatment with 0.4 mM sulfasalazine or (S)-4-CPG, GSHest 1 mM",completely restored D-54MG glioma cell growth
"N[C@H](C(=O)O)c1ccc(C(=O)O)cc1 [(S)-4-CPG, (S)-4-carboxyphenylglycine]",intracellular glutathione concentration,"glioma cells [1]; 0.25 mM, glioma cells D-54MG, U-87MG, U-251MG and primary glioma culture GBM64 (FIG. 2F)",depleted intracellular glutathione concentration
same,growth of glioma cells,"[2]; 5 days, 0.1 and 0.25 mM (S)-4-CPG, 0.25 and 0.5 mM sulfasalazine, all glioma cell lines and GBM62 (FIGS. 3A, 3B)",dose-dependent growth inhibitions
same,growth of primary astrocyte cultures,[3],negligible impact; also recorded: Neither (S)-4-CPG (FIG. 3C) nor sulfasalazine (data not shown) affected
same,survival/growth of cortical neuronal cultures,[4],negligible impact; also recorded: Neither (S)-4-CPG (FIG. 3C) nor sulfasalazine (data not shown) affected
same,reduction of incorporation of BrdU into chromosomal DNA,"D-54MG glioma cells [5]; 0.25 mM, within 48 hours, D-54MG (FIG. 4A)",50%
same,reduction of BrdU incorporation relative to 0.25 mM,"D-54MG glioma cells [5]; 0.5 mM, D-54MG (FIG. 4A)",somewhat larger reduction
same,"incorporation of BrdU, immunocytochemistry",D-54MG glioma cells [6],virtually abolished incorporation of BrdU
same,cell cycle distribution (total DNA content),glioma cells [7],a reduction of cells in G2 phase and an increase in cells in S phase
same,cell population positive for chromosomal DNA fragmentation,D-54MG glioma cells [8],17%
same,activated form of caspase-3,caspase-3,increased the activated form of caspase-3
same,glioma cells died,"glioma cells [9]; 0.5 mM, continued presence over a 5 d period (FIG. 5E)",60%
"COC(=O)CC(NC(=O)OC(C)(C)C)C(=O)CF [Boc-D-FMK, Boc Asp-fluoromethylketone]",rescue from cell death induced by (S)-4-CPG,glioma cells [10],a significant percentage of cells were rescued from cell death
N[C@@H](CSSC[C@H](N)C(=O)O)C(=O)O [cystine],growth of D-54MG cells in the presence of (S)-4-CPG,[2]; 0.25 mM (S)-4-CPG plus fourfold excess of cystine (FIG. 3E),recovered
same,reversal of inhibition of BrdU incorporation by exogenous cystine,D-54MG glioma cells [5]; inhibition caused by 0.5 mM (S)-4-CPG and 0.5 mM sulfasalazine (FIG. 4C),able to reverse the inhibition of BrdU incorporation
same,prevention of cell death induced by (S)-4-CPG,glioma cells [9]; 0.5 mM (S)-4-CPG with 1 mM cystine (FIG. 5E),completely prevented
